Test results reported in patent US8268292B2, “Obovatol having anti-anxiety activity” (Korea Research Institute of Bioscience and Biotechnology, priority 2005, dated 2012).

Legend:
Format in all cases: in vivo
ICR male mice [1] = experiment: elevated plus-maze model test
Procedure: Animals and Drugs: ICR male mice weighing from 20 g to 28 g (5 or 6 weeks) were purchased from Daehan Biolink Co., Ltd. (Korea) and housed for at least 7 days prior to the experiment under 12-h light/dark cycle (lights on at 7:00 am) in a temperature-controlled (22±2° C.) animal facility. Food and water were freely accessible. All mice were maintained in accordance with the National Institute of Toxicological Research on the Korea Food and Drug Administration guideline for the care and use of laboratory animals. Diazepam (ample type) was purchased from Dea-Won Pharmaceutical Co. (South Korea) and was orally administered 30 min prior to the experiment. Obovatol was kindly gifted from Korea Research Institute of Bioscience and Biotechnology and was orally administered 60 min prior to the experiment.
Treatment of Test Sample: obovatol prepared from Example 1 was dissolved in 0.1 ml of ethanol and diluted with 0.1% Tween-80 in order to administrate with an amount of 0.1 ml/10 g per weight of test animal. Various concentrations of test sample (obovatol), i.e., 0.2, 0.5 and 1 mg/kg were orally administrated at 1 hour prior to the experiment and […] of diazepam was peritoneally administrated into animal at 30 mins prior to the experiment.
To determine the anti-anxiety activity after administration of obovatol, elevated plus-maze model test was performed as follow in accordance with procedure cited in the literature (Dawson, G. R. et al., Trends in Pharmacological Sciences, 16, pp. 33-36, 1995).
Elevated plus-maze apparatus consists of two perpendicular open (30×5 cm) and two closed arms (30×5 cm) with 15 cm high walls, extending from the central platform (5×5 cm). […] All experimental sessions were recorded with a video camera mounted vertically above the maze. The activity on the open arm was evaluated as: 1) time spent on the open arms relative to the total time spent in the plus-maze, expressed as a percentage (100× time spent on open arm/total time in the plus-maze); 2) the number of entries into both open and closed arms, expressed as a percentage (100× open/total entries). […]

ICR male mice [2] = experiment: locomoter activity test; details: oral 0.2, 0.5 and 1.0 mg/kg; dose dependent
Procedure: All the animals used in the test are prepared in the similar method according to Experimental Example 1.
To determine and re-confirm the anti-anxiety activity of obovatol, following locomoter activity test was performed as follow in accordance with the procedure cited in the literature (Kulkarni S. K. et al., Methods and Findings in Experimental and Clinical Pharmacology, 18, pp. 219-230, 1996).
All the animals were transferred to test cage (diameter: 20 cm, height: 18 cm) one hour prior to the administration of test samples, acclimated the environment for 10 mins and the locomoter activity was determined automatically at every 1 hour.

ICR mice = experiment: acute toxicity test on ICR mice; details: oral 10, 100 and 1000 mg/kg, observed for 2 weeks
Procedure: (§1) The acute toxicity tests on ICR mice (mean body weight 25±5 g) and Sprague-Dawley rats (235±10 g, Biogenomics Co., Ltd.) were performed using the obovatol compound. Four groups consisting of 3 mice or rats was administrated orally with 10 mg/kg, 100 mg/kg and 1000 mg/kg of test sample or solvents (0.2 mL, […].) respectively and observed for 2 weeks.

Sprague-Dawley rats = experiment: acute toxicity test on Sprague-Dawley rats; details: oral 10, 100 and 1000 mg/kg, observed for 2 weeks
Procedure: as §1

obovatol was tested, and the “anti-anxiety activity relative to diazepam” value (ICR male mice [1]; at the same doses of the drugs, elevated plus-maze, FIG. 3 and FIG. 4) was “more potent anti-anxiety activity than diazepam”, the “percentage of time spent in the open arms” value (ICR male mice [1]; oral 0.2, 0.5 and 1.0 mg/kg, 60 min prior (P<0.05, P<0.05 and P<0.005)) was “significant increases” and the “percentage of entries into open arms” value (ICR male mice [1]; oral 0.2, 0.5 and 1.0 mg/kg, 60 min prior, dose dependent, compared with diazepam treated group (P<0.05, P<0.05 and P<0.005)) was “significantly increased”. The locomoter activity (ICR male mice [2]) was “significantly decreased”, the “treatment-related effects on mortality, clinical signs, body weight changes and gross findings” value (ICR mice) was “no treatment-related effects” and the “treatment-related effects on mortality, clinical signs, body weight changes and gross findings” value (Sprague-Dawley rats) was “no treatment-related effects”.
